Several values for one entry are separate records, joined by “and”; a condition that tells them apart may be missing. Equal values may be shown once.
Assay: Pharmacokinetics of decitabine in IVAP rabbit model
Type: in vivo, rabbits
Method: Decitabine was administered intravenously to IVAP rabbits (n=3) at three doses: 0.75, 1.5 and 2.5 mg/kg. It was also administered at 2.5mg/kg orally and through previously implanted intestinal and vascular access ports in the portal vein (PV), upper small intestine (USI), lower small intestine (LSI) and colon (IC). All routes received the same simple formulation of raw compound dissolved in cold saline. Care was taken to insure doses were delivered immediately (less than 15 minutes) after dissolving the powder and that the liquid formulation was kept on ice up to the time of administration. Blood samples were taken simultaneously from the median auricular artery and through a port in the portal vein at predetermined time points. Plasma was separated and kept frozen at −70° C. until shipped to Xenobiotic Laboratories for analysis.
Pharmacokinetic parameters were calculated using non-compartmental models with the Winnonlin v3.1 program.

[1] = IC 2.5 mg/kg, only two successful doses, individual values
[2] = IV 0.75 mg/kg, 2 min, 0.75 mg/kg
[3] = IV 0.75 mg/kg, 15 min, 0.75 mg/kg
[4] = IV 0.75 mg/kg, 60 min, 0.75 mg/kg
[5] = IV 0.75 mg/kg, 120 min, 0.75 mg/kg
[6] = IV 0.75 mg/kg, 240 min, 0.75 mg/kg
[7] = IV 1.5 mg/kg, 15 min, 1.5 mg/kg
[8] = IV 1.5 mg/kg, 60 min, 1.5 mg/kg
[9] = IV 1.5 mg/kg, 120 min, 1.5 mg/kg
[10] = IV 1.5 mg/kg, 180 min, 1.5 mg/kg

Nc1ncn([C@H]2C[C@H](O)[C@@H](CO)O2)c(=O)n1 [decitabine, 5-aza-2′-deoxycytidine]
hepatic first pass effect loss ((AUCIV−AUCPV/AUCIV)×100) (2.5 mg/kg into portal vein): 32%
Individual systemic Bioavailability (IC 2.5 mg/kg): 68.29% and 0.22%
AUC0-inf in Portal Vein [1]: 2.98 ng·h/mL and 830 ng·h/mL
AUC0-inf in Systemic Samples [1]: 2.51 ng·h/mL and 773 ng·h/mL
CMAX (IC 2.5 mg/kg, two individual values): 2.0 ng/mL and 611 ng/mL
concentration PV, Mean (IV 0.75 mg/kg, 2 min): 624 ng/mL
concentration SYS, Mean (IV 0.75 mg/kg, 2 min): 628 ng/mL
concentration PV, individual [2]: 581 ng/mL and 621 ng/mL and 669 ng/mL
concentration SYS, individual [2]: 666 ng/mL and 615 ng/mL and 603 ng/mL
concentration SYS, Mean (IV 0.75 mg/kg, 5 min): 422 ng/mL
concentration SYS, individual (IV 0.75 mg/kg, 5 min, 0.75 mg/kg): 432 ng/mL and 415 ng/mL and 419 ng/mL
concentration PV, Mean (IV 0.75 mg/kg, 15 min): 229 ng/mL
concentration SYS, Mean (IV 0.75 mg/kg, 15 min): 247 ng/mL
concentration PV, individual [3]: 233 ng/mL (2×) and 220 ng/mL
concentration SYS, individual [3]: 257 ng/mL and 233 ng/mL and 250 ng/mL
concentration SYS, Mean (IV 0.75 mg/kg, 30 min): 177 ng/mL
concentration SYS, individual (IV 0.75 mg/kg, 30 min): 177 ng/mL
concentration PV, Mean (IV 0.75 mg/kg, 60 min): 83 ng/mL
concentration SYS, Mean (IV 0.75 mg/kg, 60 min): 98 ng/mL
concentration PV, individual [4]: 95.1 ng/mL and 65.8 ng/mL and 89.1 ng/mL
concentration SYS, individual [4]: 102 ng/mL (2×) and 89.1 ng/mL
concentration PV, Mean (IV 0.75 mg/kg, 120 min): 28 ng/mL
concentration SYS, Mean (IV 0.75 mg/kg, 120 min): 39 ng/mL
concentration PV, individual [5]: 21.1 ng/mL and 34 ng/mL
concentration SYS, individual [5]: 40.6 ng/mL and 35.2 ng/mL and 41 ng/mL
concentration PV, Mean (IV 0.75 mg/kg, 180 min): 14 ng/mL
concentration PV, individual (IV 0.75 mg/kg, 180 min): 13.9 ng/mL
concentration SYS, Mean (IV 0.75 mg/kg, 180 min): 15 ng/mL
concentration SYS, individual (IV 0.75 mg/kg, 180 min, 0.75 mg/kg): 15 ng/mL and 13.9 ng/mL and 15.7 ng/mL
concentration PV, Mean (IV 0.75 mg/kg, 240 min): 5 ng/mL
concentration SYS, Mean (IV 0.75 mg/kg, 240 min): 6 ng/mL
concentration PV, individual [6]: 4.87 ng/mL and 5.76 ng/mL
concentration SYS, individual [6]: 5.9 ng/mL and 6.21 ng/mL and 6.31 ng/mL
IV AUC0-inf, individual (IV 0.75 mg/kg, 0.75 mg/kg): 327.37 ng·h/mL and 353.53 ng·h/mL and 354.68 ng·h/mL
concentration PV, Mean (IV 1.5 mg/kg, 2 min): 1140 ng/mL
concentration SYS, Mean (IV 1.5 mg/kg, 2 min): 1080 ng/mL
concentration PV, individual (IV 1.5 mg/kg, 2 min, 1.5 mg/kg): 1300 ng/mL and 1130 ng/mL and 985 ng/mL
concentration SYS, individual (IV 1.5 mg/kg, 2 min, 1.5 mg/kg): 1240 ng/mL and 919 ng/mL
concentration PV, Mean (IV 1.5 mg/kg, 5 min): 652 ng/mL
concentration PV, individual (IV 1.5 mg/kg, 5 min): 652 ng/mL
concentration SYS, Mean (IV 1.5 mg/kg, 5 min): 735 ng/mL
concentration SYS, individual (IV 1.5 mg/kg, 5 min, 1.5 mg/kg): 819 ng/mL and 676 ng/mL and 711 ng/mL
concentration PV, Mean (IV 1.5 mg/kg, 15 min): 350 ng/mL
concentration SYS, Mean (IV 1.5 mg/kg, 15 min): 433 ng/mL
concentration PV, individual [7]: 352 ng/mL and 301 ng/mL and 397 ng/mL
concentration SYS, individual [7]: 443 ng/mL and 404 ng/mL and 453 ng/mL
concentration PV, Mean (IV 1.5 mg/kg, 30 min): 266 ng/mL
concentration PV, individual (IV 1.5 mg/kg, 30 min): 266 ng/mL
concentration SYS, Mean (IV 1.5 mg/kg, 30 min): 330 ng/mL
concentration SYS, individual (IV 1.5 mg/kg, 30 min, 1.5 mg/kg): 355 ng/mL and 304 ng/mL
concentration PV, Mean (IV 1.5 mg/kg, 60 min): 128 ng/mL
concentration SYS, Mean (IV 1.5 mg/kg, 60 min): 156 ng/mL
concentration PV, individual [8]: 124 ng/mL and 119 ng/mL and 141 ng/mL
concentration SYS, individual [8]: 149 ng/mL and 148 ng/mL and 171 ng/mL
concentration PV, Mean (IV 1.5 mg/kg, 120 min): 59 ng/mL
concentration SYS, Mean (IV 1.5 mg/kg, 120 min): 63 ng/mL
concentration PV, individual [9]: 60 ng/mL and 57.2 ng/mL and 58.8 ng/mL
concentration SYS, individual [9]: 62.6 ng/mL and 64.9 ng/mL and 60.3 ng/mL
concentration PV, Mean (IV 1.5 mg/kg, 180 min): 22 ng/mL
concentration SYS, Mean (IV 1.5 mg/kg, 180 min): 24 ng/mL
concentration PV, individual [10]: 22.1 ng/mL and 21.1 ng/mL
concentration SYS, individual [10]: 23.7 ng/mL and 25.3 ng/mL and 23 ng/mL
concentration SYS, individual (IV 1.5 mg/kg, 240 min, 1.5 mg/kg): 10.2 ng/mL
IV AUC0-inf, individual (IV 1.5 mg/kg, 1.5 mg/kg): 552.87 ng·h/mL and 612.34 ng·h/mL
IV AUC0-inf, individual (IV 2.5 mg/kg, 2.5 mg/kg): 896.21 ng·h/mL and 1128.11 ng·h/mL
Individual systemic Bioavailability (LSI 2.5 mg/kg): 44.48% and 51.78%
Volume (Vz) (Oral): 2.29 L/kg
clearance (Oral): 37.7 mL/min/kg
